The assay can be described thus: Ratio of Ki for mouse wild type C1b domain of PKCdelta to Ki for mouse PKCdelta C1b Q27E mutant.

In the case of `CCCC(=O)O[C@@H]1[C@@H](C)[C@@]2(O)[C@@H](C=C(CO)C[C@]3(O)C(=O)C(C)=C[C@@H]23)[C@@H]2C(C)(C)[C@]12OC(=O)CCC` [(1aR,1bS,4aR,7aS,7bS,8R,9R,9aS)-4a,7b-dihydroxy-3-(hydroxymethyl)-1,1,6,8-tetramethyl-5-oxo-1,1a,1b,4,4a,5,7a,7b,8,9-decahydro-9aH-cyclopropa[3,4]benzo[1,2-e]azulene-9,9a-diyl dibutanoate], the Ki amounted to 19 nM.

The values are drawn from BindingDB's records for doi:10.1021/jm0702579 (National Cancer Institute-Frederick, 2007).
